Where “and” joins values, the source holds several entries; their conditions need not be identical. Identical values can stand only once. Toxic doses and inconclusive results are not listed.

Here are results for 19 compounds from PubChem BioAssay AID256 (DTP/NCI, 2004).

For this assay, the system named is CD2F1 mice, L1210 leukemia ip, survival T/C. As to the kind of experiment: NCI In Vivo Anticancer Drug Screen. Data for tumor model L1210 Leukemia (intraperitoneal) in CD2F1 (CDF1) mice. The conditions noted are these: higher = longer survival. In short, it runs like this:
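Implant tumor; dose compound or vehicle; measure endpoint in both groups; report treated divided by control.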

[1] abbreviates: endpoint: median survival time, dose: 10.0 mg/kg/injection, schedule: Q04DX003 (ip), vehicle: water.
Where [2] appears, read: endpoint: median survival time, dose: 20.0 mg/kg/injection, schedule: Q04DX003 (ip), vehicle: water.
Setting [3] is: endpoint: median survival time, dose: 40.0 mg/kg/injection, schedule: Q04DX003 (ip), vehicle: water.
Setting [4] is: endpoint: median survival time, dose: 80.0 mg/kg/injection, schedule: Q04DX003 (ip), vehicle: water.
Setting [5] is: endpoint: mean survival time, dose: 100.0 mg/kg/injection, schedule: Q04DX003 (ip), vehicle: saline with Tween-80.
Setting [6] is: endpoint: mean survival time, dose: 200.0 mg/kg/injection, schedule: Q04DX003 (ip), vehicle: saline with Tween-80.
Setting [7] is: endpoint: mean survival time, dose: 75.0 mg/kg/injection, schedule: Q01DX001 (ip), vehicle: saline.
Where [8] appears, read: endpoint: mean survival time, dose: 150.0 mg/kg/injection, schedule: Q01DX001 (ip), vehicle: saline.
Where [9] appears, read: endpoint: mean survival time, dose: 300.0 mg/kg/injection, schedule: Q01DX001 (ip), vehicle: saline.
[10] abbreviates: endpoint: mean survival time, dose: 25.0 mg/kg/injection, schedule: Q04DX003 (ip), vehicle: saline.
The mark [11] stands for this setting: endpoint: mean survival time, dose: 100.0 mg/kg/injection, schedule: Q01DX009 (ip), vehicle: saline with Tween-80.
[12] abbreviates: endpoint: mean survival time, dose: 200.0 mg/kg/injection, schedule: Q01DX009 (ip), vehicle: saline with Tween-80.
The mark [13] stands for this setting: endpoint: mean survival time, dose: 400.0 mg/kg/injection, schedule: Q04DX003 (ip), vehicle: saline with Tween-80.
[14] abbreviates: endpoint: mean survival time, dose: 400.0 mg/kg/injection, schedule: Q01DX009 (ip), vehicle: saline with Tween-80.
The mark [15] stands for this setting: endpoint: mean survival time, dose: 50.0 mg/kg/injection, schedule: Q01DX009 (ip), vehicle: saline with Tween-80.

With `CC(C)(C)C1=Nc2ccccc2[Si]1(C)C`, the T/C reads like this: (endpoint: mean survival time, dose: 100.0 mg/kg/injection, schedule: Q01DX001 (ip), vehicle: saline with Tween-80) 98 % of control; (endpoint: mean survival time, dose: 200.0 mg/kg/injection, schedule: Q01DX001 (ip), vehicle: saline with Tween-80) 102 % of control; (endpoint: mean survival time, dose: 400.0 mg/kg/injection, schedule: Q01DX001 (ip), vehicle: saline with Tween-80) 95 % of control.
As to `C[Si](C)(CN)CN.O=C([O-])C1(C(=O)[O-])CCC1.[Pt+4]`, the T/C (endpoint: median survival time, dose: 2.5 mg/kg/injection, schedule: Q04DX003 (ip), vehicle: water) was 110 % of control; the T/C (endpoint: median survival time, dose: 5.0 mg/kg/injection, schedule: Q04DX003 (ip), vehicle: water) was 107 % of control; the T/C under setting [1] was 122 % of control; the T/C under setting [2] was 151 % of control; the T/C (endpoint: median survival time, dose: 25.0 mg/kg/injection, schedule: Q04DX003 (ip), vehicle: water) was 151 % of control; the T/C under setting [3] is 164 % of control and 177 % of control. The T/C is, setting by setting: (endpoint: median survival time, dose: 50.0 mg/kg/injection, schedule: Q04DX003 (ip), vehicle: water) 175 % of control; (endpoint: median survival time, dose: 60.0 mg/kg/injection, schedule: Q04DX003 (ip), vehicle: water) 181 % of control; under setting [4], 244 % of control; (endpoint: median survival time, dose: 100.0 mg/kg/injection, schedule: Q04DX003 (ip), vehicle: water) 175 % of control.
As for `CCOC(=O)c1c(C)nc(C)c(C(=O)OCC)c1-c1ccc(N(C)C)cc1`, the T/C reads like this: under setting [5], 104 % of control; under setting [6], 98 % of control.
On to `O=C(O)Cc1ccc(Cl)cc1[N+](=O)[O-]`, for which the T/C by setting is: (endpoint: mean survival time, dose: 100.0 mg/kg/injection, schedule: Q01DX001 (ip), vehicle: other) 113 % of control; (endpoint: mean survival time, dose: 200.0 mg/kg/injection, schedule: Q01DX001 (ip), vehicle: other) 107 % of control; (endpoint: mean survival time, dose: 400.0 mg/kg/injection, schedule: Q01DX001 (ip), vehicle: other) 98 % of control.
Consider `N#Cc1cnc(N)[nH]c1=O`, for which the T/C is 88 % of control (endpoint: mean survival time, dose: 50.0 mg/kg/injection, schedule: Q01DX009 (ip), vehicle: Klucel (hydroxypropylcellulose) (HPC)); 88 % of control (endpoint: mean survival time, dose: 100.0 mg/kg/injection, schedule: Q01DX009 (ip), vehicle: Klucel (hydroxypropylcellulose) (HPC)); 91 % of control (endpoint: mean survival time, dose: 200.0 mg/kg/injection, schedule: Q01DX009 (ip), vehicle: Klucel (hydroxypropylcellulose) (HPC)).
Consider `CC1C(=O)OC2C1CCC1(C)C=CC(=O)C(C)(Cl)C21O` (stereo not drawn), for which the T/C (endpoint: mean survival time, dose: 100.0 mg/kg/injection, schedule: Q04DX002 (ip), vehicle: saline with Tween-80) was 100 % of control; the T/C (endpoint: mean survival time, dose: 200.0 mg/kg/injection, schedule: Q04DX002 (ip), vehicle: saline with Tween-80) was 100 % of control; the T/C (endpoint: mean survival time, dose: 400.0 mg/kg/injection, schedule: Q04DX002 (ip), vehicle: saline with Tween-80) was 91 % of control and 87 % of control.
Turning to `O=c1c2nccnc2nc2n1CCCCC2`, the T/C runs as follows: under setting [7], 100 % of control; under setting [8], 103 % of control; under setting [9], 103 % of control.
`CN1C2CCC1CC(OC(=O)/C=C/C(=O)OC1CC3CCC(C1)N3C)C2` (stereo not drawn): the T/C by setting is: under setting [7], 94 % of control; under setting [8], 106 % of control; under setting [9], 94 % of control.
For `CN=C1C=C(NC)C(F)(F)C1(F)F`, the T/C (endpoint: mean survival time, dose: 6.25 mg/kg/injection, schedule: Q04DX003 (ip), vehicle: saline) was 98 % of control; the T/C (endpoint: mean survival time, dose: 12.5 mg/kg/injection, schedule: Q04DX003 (ip), vehicle: saline) is 101 % of control; the T/C under setting [10] is 101 % of control.
With `N#CC(c1ccccc1)C(CC(=O)c1ccccc1)c1ccccc1` (stereo not drawn), the T/C was 88 % of control under setting [11]; 100 % of control under setting [5]; 88 % of control under setting [12]; 96 % of control under setting [6]; 103 % of control under setting [13].
As to `O=c1cccc(Cl)[nH]1`, the T/C is 102 % of control under setting [11]; 98 % of control under setting [5]; 102 % of control under setting [12]; 102 % of control under setting [6]; 90 % of control under setting [14]; 98 % of control under setting [13].
As for `O=P([O-])([O-])O.O=P([O-])([O-])O.O=P([O-])([O-])O.O=P([O-])([O-])O.[Na+].[OH3+].[OH3+].[Pt+2].[Pt+2]`, the T/C runs as follows: under setting [1], 102 % of control; under setting [2], 91 % of control; (endpoint: median survival time, dose: 30.75 mg/kg/injection, schedule: Q04DX003 (ip), vehicle: water) 103 % of control; under setting [3], 98 % of control; (endpoint: median survival time, dose: 61.5 mg/kg/injection, schedule: Q04DX003 (ip), vehicle: water) 102 % of control; under setting [4], 94 % of control. Also, the T/C was 104 % of control (endpoint: median survival time, dose: 123.0 mg/kg/injection, schedule: Q04DX003 (ip), vehicle: water) and 110 % of control (endpoint: median survival time, dose: 246.0 mg/kg/injection, schedule: Q04DX003 (ip), vehicle: water).
On to `CCCCCCCCCCCCC(=O)OC`, for which the T/C runs as follows: under setting [11], 107 % of control; under setting [12], 106 % of control; under setting [14], 105 % of control.
As for `Clc1c(Cl)c(Cl)[c]([Hg][c]2c(Cl)c(Cl)c(Cl)c(Cl)c2Cl)c(Cl)c1Cl`, the T/C runs as follows: (endpoint: mean survival time, dose: 25.0 mg/kg/injection, schedule: Q01DX009 (ip), vehicle: saline with Tween-80) 100 % of control; under setting [10], 103 % of control; under setting [15], 103 % of control; (endpoint: mean survival time, dose: 50.0 mg/kg/injection, schedule: Q04DX003 (ip), vehicle: saline) 97 % of control; under setting [11], 97 % of control; under setting [5], 96 % of control. Moreover, under “endpoint: mean survival time, dose: 100.0 mg/kg/injection, schedule: Q04DX003 (ip), vehicle: saline”, the T/C was 97 % of control.
As to `COc1cc(OC)c(NC(=O)Oc2ccc(C=O)cc2OC)cc1Cl`, the T/C under setting [15] is 86 % of control and the T/C under setting [11] was 96 % of control.
Take `COC(=O)CCC1CCCC(CCC(=O)OC)C1=O` (stereo not drawn): the T/C was 87 % of control (endpoint: mean survival time, dose: 100.0 mg/kg/injection, schedule: Q04DX003 (ip), vehicle: Klucel (hydroxypropylcellulose) (HPC)); 94 % of control (endpoint: mean survival time, dose: 200.0 mg/kg/injection, schedule: Q04DX003 (ip), vehicle: Klucel (hydroxypropylcellulose) (HPC)); 92 % of control (endpoint: mean survival time, dose: 400.0 mg/kg/injection, schedule: Q04DX003 (ip), vehicle: Klucel (hydroxypropylcellulose) (HPC)).
In the case of `O=C(O)c1ccccc1C(=O)c1ccc(CBr)cc1`, the T/C was 93 % of control (endpoint: mean survival time, dose: 6.25 mg/kg/injection, schedule: Q04DX003 (ip), vehicle: saline with Tween-80); 101 % of control (endpoint: mean survival time, dose: 12.5 mg/kg/injection, schedule: Q04DX003 (ip), vehicle: saline with Tween-80); 101 % of control (endpoint: mean survival time, dose: 25.0 mg/kg/injection, schedule: Q04DX003 (ip), vehicle: saline with Tween-80).
`CCOC(=O)C1(C(=O)OCC)C(C)CC2Nc3ccccc3C(=O)N21` (stereo not drawn): the T/C reads like this: (endpoint: mean survival time, dose: 100.0 mg/kg/injection, schedule: Q01DX001 (ip), vehicle: Klucel (hydroxypropylcellulose) (HPC)) 100 % of control; (endpoint: mean survival time, dose: 200.0 mg/kg/injection, schedule: Q01DX001 (ip), vehicle: Klucel (hydroxypropylcellulose) (HPC)) 96 % of control; (endpoint: mean survival time, dose: 400.0 mg/kg/injection, schedule: Q01DX001 (ip), vehicle: Klucel (hydroxypropylcellulose) (HPC)) 92 % of control.
As to `CC(=O)OCC1OC(N(C(C)=O)c2nc(Cl)c3cc[nH]c3n2)C(OC(C)=O)C1OC(C)=O` (stereo not drawn), the T/C was 104 % of control (endpoint: mean survival time, dose: 12.5 mg/kg/injection, schedule: Q01DX005 (ip), vehicle: water); 101 % of control (endpoint: mean survival time, dose: 25.0 mg/kg/injection, schedule: Q01DX005 (ip), vehicle: water); 98 % of control (endpoint: mean survival time, dose: 50.0 mg/kg/injection, schedule: Q01DX005 (ip), vehicle: water); 102 % of control (endpoint: mean survival time, dose: 100.0 mg/kg/injection, schedule: Q01DX005 (ip), vehicle: water); 106 % of control (endpoint: mean survival time, dose: 200.0 mg/kg/injection, schedule: Q01DX005 (ip), vehicle: water).
